The values that follow come from patent US5683668A, “Method of generating nitric oxide gas using nitric oxide complexes” (The United States of America as represented by the …, priority 1996, dated 1997).

Where two headings read alike, the source gives them in different places.

The nature of data set [1]: Stability of the adducts as solids. The class given is physicochemical. Particulars: applicant's statements; room temperature, closed containers or air.
For data set [2] the following is noted: unless stored at -78° C.; prior art salts; cited from earlier work.
Data set [3] is described as follows: % NO by weight of the NO complexes. The class given is physicochemical.
Data set [4] in a line: NO release half-life by disappearance of UV absorption in phosphate buffer. The class given is physicochemical. The method, then:
Ultraviolet data were obtained in 0.01M NaOH to avoid this degradation problem. […] Kinetic data were obtained by diluting stock solutions (0.01M NaOH) of each compound with pH 7.4 phosphate buffer (0.1M) as needed to produce final solutions having compound concentrations in the range of 90-120 μM.

Data set [5] in a line: Equivalents of NO released at 22° C. The class given is physicochemical.
Data set [6] can be described thus: % NO yield on acid release, thermal energy analyzer (TEA). The class given is physicochemical. The following applies: weight percent of the theoretical maximum, dilute aqueous HCl. How it is done:
NO gas was generated from compounds 2, 6, 10, 11, and 14 of Example 1, as well as H2 N(CH2)3 N[N(O)NO^- ](CH2)4 NH(CH2)3 NH3^+, using the procedure set forth below. The percent NO yield was then calculated for each of these NO adducts.
The apparatus comprises a first vessel 10 having an inlet 11 and an outlet 12 and contains mineral oil (or other heavy liquid) to prevent backflow. The outlet 12 of vessel 10 is connected to a first inlet 21 of second vessel 20, which also has a second inlet 22 and an outlet 23. The second vessel 20 contained either the solid NO complex or an aqueous solution of the NO complex. An addition funnel 30 is connected to the second inlet 22 of second vessel 20 so as to provide a means of introducing dilute aqueous HCl into second vessel 20. The outlet 23 of second vessel 20 is connected to the inlet 41 of condenser 40, and the outlet 42 of condenser 40 is connected to the inlet 51 of third vessel 50. The condenser 40 and third vessel 50 function to capture any mist carried through the apparatus in the gas stream. The outlet 52 of third vessel 50 is connected to drying towers 60 and 70 which contain desiccant such as calcium chloride or molecular sieves and contain an outlet 71 for gas passage.
In use, nitrogen gas was passed through the apparatus through the inlet 11 of first vessel 10 to flush oxygen from the apparatus. Acidic solution was then introduced into second vessel 20 by way of addition funnel 30, and NO gas was generated in second vessel 20. The thus generated NO gas flowed through the outlet 23 of second vessel 20, through the condenser 40, into the third vessel 50, into the drying towers 60 and 70, and out the […].
The NO gas released through the outlet 71 of drying column 70 was fed into a thermal energy analyzer (TEA), which generates a signal proportional to the quantity of NO gas present. The yield of NO gas, as a weight percent of the theoretical maximum, obtained for each of the compounds tested is given in Table III.

A short description of data set [7]: NO gas yield measured volumetrically in a gas buret. The class given is physicochemical. How it is done: In a separate series of experiments, the generated gas was also collected in a gas buret and the yields were measured volumetrically. Yields ranged from 70-90% of theoretical. For example, when 1.0 g of CH3 N(N2 O2^-)CH2 CH2 NH3^+ was added to 5 ml concentrated H2 SO4, 285 ml NO gas (85%) was trapped in the buret.

The nature of data set [8]: Refrigerated storage stability by combustion analysis. Format: physicochemical. Particulars: refrigerator, several months. An excerpt: Samples of compound 11 of Example 1 were stored in a refrigerator over the course of several months.
Where [9] appears, read: 22° C., pH 7.4, 0.1M phosphate buffer, read-out: t1/2.
[10] abbreviates: phosphate buffer, buffered aqueous solution, pH 7.4, 22° C., read-out: half-life (converted).

Take `CC(C)N(CCCN)[N+]([O-])=NO.CC(C)NCCCN`: the stability as solid entry in data set [1] is “not stable enough to obtain combustion analytical data”.
For `CC(C)N/[N+]([O-])=N/O`, the “stability in the solid state” value in data set [2] is “slow decomposition even in the solid state unless stored at -78 °C”.
In the case of `CCN(CC)[N+]([O-])=NO` [CH3 CH2 N(N2 O2^-)CH2 CH3.Na^+, reference compound], the “% NO By Wt.” value in data set [3] is recorded as 38.7%.
As to `CC(C)N(CCCN)[N+]([O-])=NO` [Compound 1, 1-Hydroxy-2-oxo-3-(3-aminopropyl)-3-isopropyl-1-triazene], the half-life in data set [4] (setting [9]) amounted to 1.55 h.
For the compound `CNCCN(C)[N+]([O-])=NO` [Compound 2, 1-Hydroxy-2-oxo-3-(N-methyl-2-aminoethyl)-3-methyl-1-triazene], the half-life in data set [4] (setting [9]) and in data set [4] (setting [10]) was 0.602 h each time. Moreover, the “equivalents of NO released” value in data set [5] is on record as “two equivalents”. In data set [6], the “% NO Yield” value came to 98%. Further, in data set [3], the “% NO By Wt.” value was determined as 40.5%.
For `CNCCCN(C)[N+]([O-])=NO` [Compound 3, 1-Hydroxy-2-oxo-3-(N-methyl-3-aminopropyl)-3-methyl-1-triazene], the half-life in data set [4] (setting [9]) and in data set [4] (setting [10]) was 0.168 h throughout.
In the case of `CNCCCCN(C)[N+]([O-])=NO` [Compound 4, 1-Hydroxy-2-oxo-3-(N-methyl-4-aminobutyl)-3-methyl-1-triazene], the half-life in data set [4] (setting [9]) and in data set [4] (setting [10]) was 0.0217 h in each case.
In the case of `CNCCCCCCN(C)[N+]([O-])=NO` [Compound 5, 1-Hydroxy-2-oxo-3-(N-methyl-6-aminohexyl)-3-methyl-1-triazene], in data set [4] (setting [9]), the half-life turned out to be 0.045 h.
For the compound `CN(CCN)[N+]([O-])=NO` [Compound 6, 1-Hydroxy-2-oxo-3-(2-aminoethyl)-3-methyl-1-triazene], the half-life in data set [4] (setting [9]) and in data set [4] (setting [10]) was 0.667 h in each case. For the same compound, the “volume of NO gas trapped” value in data set [7] (1.0 g adduct added to 5 ml concentrated H2 SO4) came out at 285 mL. In addition, in data set [7] (percent of theoretical, gas buret), the “volumetric NO yield” value was 85%. The “equivalents of NO released” value in data set [5] is “two equivalents”. The “% NO Yield” value in data set [6] was determined as 110%. Further, the “% NO By Wt.” value was 45% in data set [3] and 44.7% in data set [3] (listed as CH3 N(N2 O2^-)CH2 CH2 NH3^+).
For the compound `CCN(CCN)[N+]([O-])=NO` [Compound 7, 1-Hydroxy-2-oxo-3-(2-aminoethyl)-3-ethyl-1-triazene], the half-life in data set [4] (setting [9]) and in data set [4] (setting [10]) was 5.55 h throughout. The “% NO By Wt.” value in data set [3] worked out at 40.5%.
In the case of `CCNCCN(CC)[N+]([O-])=NO` [Compound 8, 1-Hydroxy-2-oxo-3-(N-ethyl-2-aminoethyl)-3-ethyl-1-triazene], the half-life in data set [4] (setting [9]) stood at 5.45 h. Further, the “equivalents of NO released” value in data set [5] was “two equivalents”. Further, the “% NO By Wt.” value in data set [3] came out at 34.1%.
Consider `CN(CCCN)[N+]([O-])=NO` [Compound 9, 1-Hydroxy-2-oxo-3-(3-aminopropyl)-3-methyl-1-triazene], for which the half-life in data set [4] (setting [9]) was 0.228 h.
For the compound `CCNCCCN(CC)[N+]([O-])=NO` [Compound 10, 1-Hydroxy-2-oxo-3-(N-ethyl-3-aminopropyl)-3-ethyl-1-1-triazene], the half-life in data set [4] (setting [9]) was 1.2 h. Moreover, the “% NO Yield” value in data set [6] is reported as 100%.
For `CCCN(CCCN)[N+]([O-])=NO` [Compound 11, 1-Hydroxy-2-oxo-3-(3-aminopropyl)-3-propyl-1-triazene], the half-life in data set [4] (setting [9]) was 1.28 h. The “equivalents of NO released” value in data set [5] is “two equivalents”. The “change in elemental composition on storage” value in data set [8] was “no change in elemental composition was observed”. For the same compound, the “% NO Yield” value in data set [6] is 110%.
As to `CC(C)NCCCN(C(C)C)[N+]([O-])=NO` [Compound 12, 1-Hydroxy-2-oxo-3-(N-isopropyl-3-aminopropyl)-3-isopropyl-1-triazene], the half-life in data set [4] (setting [9]) was determined as 1.48 h.
On the same count and under the same terms, as for `NCCCN(C1CCCCC1)[N+]([O-])=NO` [Compound 13, 1-Hydroxy-2-oxo-3-(3-aminopropyl)-3-cyclohexyl-1-triazene], the figure is 1.92 h.
With `NCCN(CCN)[N+]([O-])=NO` [Compound 14, 1-Hydroxy-2-oxo-3,3-di (2-aminoethyl)-1-triazene], the half-life was 56.7 h in data set [4] (setting [9]) and 56 h in data set [4] (setting [10]). The “half-life (in words)” value in data set [4] (comparison between adducts differing in R' or type) was “too stable to permit monitoring over a sufficient number of half-lives”. Moreover, the “half-life relative to the diethylamine/NO adduct” value in data set [4] (fold over diethylamine/NO adduct) is on record as “over 200 times”. In addition, the “equivalents of NO released” value in data set [5] is given as “two equivalents”. The “% NO Yield” value in data set [6] stood at 97%. Further, the “% NO By Wt.” value in data set [3] came out at 36.8%.
For `NCCCN(CCCN)[N+]([O-])=NO` [Compound 15, 1-Hydroxy-2-oxo-3,3-di(3-aminopropyl)-1-triazene], the half-life in data set [4] (setting [9]) came out at 4.73 h.
As for `NCCCCN(CCCN)[N+]([O-])=NO` [Compound 16, 1-Hydroxy-2-oxo-3-(3-aminopropyl)-3-(4-aminobutyl)-1-triazene], the half-life in data set [4] (setting [9]) is 2.75 h. The stability as solid entry in data set [1] was “hygroscopic”.
Regarding `CCN(CC)[N+]([O-])=NO` [DEA/NO], the “stability in the solid state” value in data set [2] is “slow decomposition even in the solid state unless stored at -78 °C”.
Turning to `NCCCNCCCCN(CCCN)[N+]([O-])=NO` [spermine/NO adduct], the “equivalents of NO released” value in data set [5] is reported as “two equivalents”. Also, the “% NO Yield” value in data set [6] stood at 95%.
